# Test results reported in patent publication US20150045291A1, “LIPOPEPTIDE CONJUGATES COMPRISING SPHINGOLIPID AND HIV GP41 DERIVED PEPTIDES” (priority 2012, published 2015).
# Read-outs that look alike come from different tables or passages of the source. Starred links: 1 amine or outer side, 2 acyl side, 3 side chain; linkers in the order of their positions; H or OH if unused. Residues, ends and D or L forms follow the SMILES beside them. *: point of attachment. Sphinganine = CCCCCCCCCCCCCCC[C@@H](O)[C@H](CO)N*; Palmitoyl = CCCCCCCCCCCCCCCC(=O)*; CO = O=C([*:1])[*:2]
# Experiments:
# [1] = Peptide binding to LUV, PC:Chol (9:1); details: Ka, NBD-labeled compound titrated with LUV; mean±s.d. of the fitting curve, n=3
# Protocol: (§1) Lipid vesicle preparation. Large unilamellar vesicles (LUV) were prepared from egg phosphatidylcholine (PC), cholesterol (Chol) and egg yolk sphingomyelin (SM) (Sigma Chemical Co., Israel). A dried film of lipids containing a total of 2 mg of PC:SM:Chol (1:1:1) or 2 mg of PC:Chol (9:1) was suspended in PBS and vortexed for 1.5 min. The lipid suspension underwent five cycles of freezing-thawing and then extrusion through polycarbonate membranes with 1 μm and 0.1 μm diameter pores for 25 times.
# (§2) Peptide binding to LUV. The degree of peptide association with lipid vesicles was measured by adding lipid vesicles to 0.1 μM fluorescently NBD-labeled peptides at room temperature. The fluorescence intensity was measured as a function of the lipid:peptide molar ratio, with excitation set at 467 nm (10-nm slit) and emission set at 530 nm (10-nm slit). To determine the extent of the lipid's contribution to any given signal, the readings after the addition of lipid vesicles were subtracted as background from the recorded fluorescence intensity. The affinity constants were then determined by steady state affinity model using non-linear least-squares (NLLSQ). The NLLSQ fitting was done using the following equation: […]
# (§3) where X is the lipid concentration, Y(x) is the fluorescence emission, Fmax is the maximal difference in the emission of NBD-labeled peptide before and after the addition of lipids (it represents the maximum peptide bound to lipid), and Ka is the affinity constant.
# (§4) Compound association with lipid vesicles was estimated by NBD-labeled compound titration with large unilamellar vesicles. The mole ratio between phosphatidylcholine (PC), sphingomyelin (SM), and cholesterol (Chol) is presented for each vesicle. The membrane-binding constants (Ka) were calculated from equation 2 in the Methods. Results represent the mean±s.d. of the fitting curve, n=3.
# [2] = Peptide binding to LUV, PC:SM:Chol (1:1:1); details: Ka, NBD-labeled compound titrated with LUV; mean±s.d. of the fitting curve, n=3
# Protocol: as §1, §2, §3, §4
# [3] = Secondary structure determination by circular dichroism; assay type: physicochemical; details: percentage of α-helical structure, CD, 10 μM peptide in HEPES buffer 5 mM pH 7.4, 25° C.
# Protocol: Secondary structure determination. Circular Dichroism (CD) measurements were performed by using an AppliedPhoto physics spectropolarimeter. The spectra were scanned using a thermostatic quartz cuvette with a path length of 1 mm. Wavelength scans were performed at 25° C.; the average recording time was 15 sec, in 1-nm steps, in the wavelength range of 190-260 nm. Each peptide concentration was 10 μM in HEPES buffer (5 mM, pH 7.4).
# Helicity (%): The percentage of α-helical structure was determined as described in the section of Materials and Methods.
# [4] = Hydrophobicity by RP-HPLC; assay type: physicochemical; details: RP-HPLC retention time, analytical C2 column, CH3CN/H2O gradient
# Protocol: Peptide synthesis, lipid moiety conjugation, and fluorescent labeling. Peptides were synthesized on Rink Amide MBHA resin by using the F-moc strategy. Several peptides contain a lysine residue at their C-terminus with an MTT side-chain protecting group (Nova-biochem AG, Switzerland) that requires a special deprotection step under mild acidic conditions (2×1 min of 5% trifluoroacetic acid (TFA) in dichloromethane (DCM) and 30 min of 1% TFA in DCM). This enables the conjugation of a lipid moiety or a fluorescent probe to the C-terminus. The chemical synthesis schemes of the following compounds 1-5 are described in FIG. 6. Conjugation of hexadecanoic (palmitic) acid (C16) or α-Tocopherol succinate (Sigma Chemical Co., Israel) to the N-terminus of selected peptides (compound 2 and compound 4, respectively) was performed using standard F-moc chemistry. Conjugation of cholesterol to the N-terminus of a peptide (compound 3) was performed by adding 10 equivalents of cholesteryl chloroformate (Alfa Aesar, USA) dissolved in DCM, together with 3 equivalents of triethyl amine to the peptides' resin. Conjugation of D-erythro-Dihydrosphingosine (D-erythro sphinganine), (Matreya, LCC, USA) to the N- or C-terminus of a peptide (compound 1) was performed as followed: first, 10 equivalents of N,N′-Disuccinimidyl carbonate (DSC) (Chem-Impex Internatinal, USA) and 20 equivalents of N,N-Diisopropylethylamine (DIEA) were added to the resin for 2 hours in dimethylformamide (DMF). Then, 2 equivalents of sphinganine and 2 equivalents of DIEA were added for overnight incubation in DMF anhydrous. The conjugation of D-erythro-Sphingosine (Matreya, LCC, USA) to the peptides (compound 5) was performed as described for compound 1. Addition of NBD-F, fluoride (4-fluoro-7-nitrobenzofurazan) (NBD) fluorescent probe (Biotium, USA) to the N- or C-terminus of selected peptides was performed in DMF for 1 hour. All peptides were cleaved from the resin by a TFA:DDW:TES (93.1:4.9:2 (v/v)) mixture, and purified by reverse-phase high-performance liquid chromatography (RP-HPLC) to >95% homogeneity. The molecular weight of the peptides was confirmed by platform LCA electrospray mass spectrometry. For hydrophobicity tests the peptides were eluted with a flow rate of 0.6 ml/min using a two-step linear gradient from CH3CN/H2O 20:80 v/v to CH3CN/H2O 95:5 v/v in 30 min and from CH3CN/H2O 95:5 v/v to CH3CN/H2O 95:5 in 10 min v/v on an analytical C2 column (7 μm particle size, pore size 100 Å) from Nucleosil.
# Hydrophobicity (min): Hydrophobicity was analyzed by RP-HPLC. The retention time of each compound is presented.
# [5] = tested on: fully infectious HIV-1 HXB2
# [6] = tested on: pseudotyped virus with LAI ENV (CXCR4 tropic)
# [7] = tested on: pseudotyped virus with AD8 ENV (CCR5 tropic)
# [8] = tested on: Fuzeon-resistant LAI strain with V38E mutation in gp41; experiment: Fuzeon-resistant virus infection; details: mutation in the GIV sequence (V38E)
# [9] = fully infectious HIV-1 system (Table 2)
Compound,"Membrane-binding constant (M^−1), PC:Chol (9:1) [1] [M⁻¹]","Membrane-binding constant (M^−1), PC:SM:Chol (1:1:1) [2] [M⁻¹]",Helicity (%) [3] [%],Hydrophobicity [4] [min],"IC50 [5, 9] [nM]","IC50 ([5]; read-out: Virus-cell fusion IC50, TZM-bl cells infected with fully contagious HIV, mean±s.d., n=3) [nM]",Effect on viral infectivity / fusion (in words) ([5]; at / up to 1 μM),"IC50 ([5]; read-out: IC50 (inhibitory concentration at 50% infectivity), TZM-bl cells, fully contagious HXB2 HIV-1) [nM]","Viral infectivity curves, compound added to target cells before the virus vs immediately after ([5]; time of addition)",IC50 [6] [nM],IC50 [7] [nM],Antiviral activity against V38E mutant (in words) [8]
CCCCCCCCCCCCCCCC(=O)N[C@@H](CC(C)C)C(=O)N[C@@H](CC(C)C)C(=O)N[C@@H](CCC(N)=O)C(=O)N[C@@H](CC(C)C)C(=O)N[C@H](C(=O)N[C@H](C(=O)N[C@@H](Cc1c[nH]c2ccccc12)C(=O)NCC(=O)N[C@H](C(=O)N[C@@H](CCCCN)C(=O)N[C@@H](CCC(N)=O)C(=O)N[C@@H](CC(C)C)C(=O)N[C@@H](CCC(N)=O)C(=O)N[C@@H](C)C(=O)N[C@@H](CCCNC(=N)N)C(=O)N[C@H](C(=O)N[C@@H](CC(C)C)C(N)=O)[C@@H](C)CC)[C@@H](C)CC)C(C)C)[C@@H](C)O [Palmitic acid-N17] (Palmitoyl-LLQLTVWGIKQLQARIL-NH2),170000 ± 30000,150000 ± 70000,<10,26.7,> 4000,> 4000,,,,,,
"CCCCCCCCCCCCCCC[C@@H](O)[C@H](CO)NC(=O)N[C@@H](CC(C)C)C(=O)N[C@@H](CC(C)C)C(=O)N[C@@H](CCC(N)=O)C(=O)N[C@@H](CC(C)C)C(=O)N[C@H](C(=O)N[C@H](C(=O)N[C@@H](Cc1c[nH]c2ccccc12)C(=O)NCC(=O)N[C@H](C(=O)N[C@@H](CCCCN)C(=O)N[C@@H](CCC(N)=O)C(=O)N[C@@H](CC(C)C)C(=O)N[C@@H](CCC(N)=O)C(=O)N[C@@H](C)C(=O)N[C@@H](CCCNC(=N)N)C(=O)N[C@H](C(=O)N[C@@H](CC(C)C)C(N)=O)[C@@H](C)CC)[C@@H](C)CC)C(C)C)[C@@H](C)O [Sphinganine-N17, Sphinganine-LLQLTVWGIKQLQARIL] ({Sphinganine-CO}-LLQLTVWGIKQLQARIL-NH2)",470000 ± 100000,84000 ± 14000,<10,27.2,121 ± 36,,completely blocks fusion,121,no difference,312,403,preserved its potent antiviral activity
enfuvirtide,64000 ± 14000,31000 ± 5000,,,,,,,,,,considerably weakened the antiviral activity
